Measured values reported in PMC6422167 (ChemMedChem, 2018).
Like-named read-outs stand apart in the source and are kept apart here.

Key:
[1] = molecular target: T1, σ1 receptor (Cavia porcellus, UniProt Q60492); assay: σ1 receptor binding affinity, competition against; design: species or system guinea pig; settings: for Selectivity ratio VAChT/ σ1: ratio of Ki values, Table 2; for Ki: read-out: Ki σ1, homogenate of guinea pig brain, tested as oxalate, mean ± SD
[2] = molecular target: T2, σ2 receptor (Rattus norvegicus, UniProt Q5U3Y7); assay: σ2 receptor binding affinity, competition against [3H]DTG; settings: for Selectivity ratio VAChT/ σ2: ratio of Ki values, Table 2; for Ki: read-out: Ki σ2, homogenate of rat liver, tested as oxalate, mean ± SD
T2 sequence (Q5U3Y7 1-176): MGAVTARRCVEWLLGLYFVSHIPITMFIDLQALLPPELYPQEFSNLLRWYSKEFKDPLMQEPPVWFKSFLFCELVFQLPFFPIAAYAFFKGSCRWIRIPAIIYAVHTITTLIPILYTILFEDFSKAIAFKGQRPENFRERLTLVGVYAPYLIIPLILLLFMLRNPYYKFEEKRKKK

[3] = molecular target: T1, σ1 receptor; settings: read-out: Ki σ1, cited from earlier work
[4] = molecular target: T2, σ2 receptor; settings: read-out: Ki σ2; reference σ1 ligand; cited from earlier work
[5] = molecular target: T3, human VAChT (Homo sapiens, UniProt Q16572); settings: read-out: Ki VAChT; reference ligand; cited from earlier work
T3 sequence (Q16572 1-532): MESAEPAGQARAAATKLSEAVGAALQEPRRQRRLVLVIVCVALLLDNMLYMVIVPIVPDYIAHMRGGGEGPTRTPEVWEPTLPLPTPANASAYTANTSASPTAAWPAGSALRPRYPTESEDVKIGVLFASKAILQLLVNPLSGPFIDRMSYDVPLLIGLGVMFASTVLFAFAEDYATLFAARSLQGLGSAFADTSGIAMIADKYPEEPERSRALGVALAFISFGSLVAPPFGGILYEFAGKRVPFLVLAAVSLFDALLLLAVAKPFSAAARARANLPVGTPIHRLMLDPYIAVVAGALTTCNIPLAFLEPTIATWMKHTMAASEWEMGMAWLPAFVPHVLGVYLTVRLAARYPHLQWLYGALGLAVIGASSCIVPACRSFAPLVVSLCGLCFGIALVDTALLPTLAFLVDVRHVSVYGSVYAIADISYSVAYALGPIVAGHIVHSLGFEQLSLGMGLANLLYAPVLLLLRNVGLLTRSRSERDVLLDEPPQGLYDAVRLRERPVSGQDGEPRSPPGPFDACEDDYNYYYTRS

T1 sequence (Q60492 whole entry): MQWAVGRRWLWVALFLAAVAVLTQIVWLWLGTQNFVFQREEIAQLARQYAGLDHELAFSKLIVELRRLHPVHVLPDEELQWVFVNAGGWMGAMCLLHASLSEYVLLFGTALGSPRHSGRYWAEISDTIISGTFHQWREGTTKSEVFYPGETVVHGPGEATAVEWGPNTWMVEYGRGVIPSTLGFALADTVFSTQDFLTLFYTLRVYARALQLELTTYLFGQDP

Molecule | Selectivity ratio VAChT/ σ1 [1] | Selectivity ratio VAChT/ σ2 [2] | Ki [1] | Ki [2] | Ki ([3]; reference σ1 ligand) | Ki [4] | Ki [5] | Ki ([3]; reference ligand)
O=C(c1ccc(SCCF)cc1)C1CCN(C2Cc3ccccc3CC2O)CC1 (racemic) [(±)-14a, (±)-(4-((2-Fluoroethyl)thio)phenyl)(1-(3-hydroxy-1,2,3,4-tetrahydronaph-thalen-2-yl)piperidin-4-yl)methanone] | 7.0 | > 420 |  |  |  |  |  | 
CSc1ccc(C(=O)C2CCN(C3Cc4ccccc4CC3O)CC2)cc1 (racemic) [(±)-8, (±)-(1-(3-Hydroxy-1,2,3,4-tetrahydronaphthalen-2-yl)piperidin-4-yl)(4-(methylthio)phenyl)methanone] | 7.2 | > 420 | 17.2 ± 4 nM | > 1000 nM |  |  |  | 
O=C(c1ccc(SCCCF)cc1)C1CCN(C2Cc3ccccc3CC2O)CC1 (racemic) [(±)-14b, (±)-(4-((3-Fluoropropyl)thio)phenyl)(1-(3-hydroxy-1,2,3,4-tetrahydronaph-thalen-2-yl)piperidin-4-yl)methanone] | 17.7 | > 430 | 40.8 ± 4.1 nM | > 1000 nM |  |  |  | 
(-)-vesamicol [reference compound] |  |  |  | 34.5 ± 2 nM |  |  |  | 
O=C(Cc1ccccc1F)NC1CCC(Cc2ccccc2)CC1 (centres unmarked) [YUN-122, N-(4-benzylcyclohexyl)-2-(2-fluorophenyl)acetamide] |  |  |  |  | 3.6 ± 1.1 nM | 667 ± 98 nM |  | 
O[C@@H]1Cc2cccc(OCCF)c2C[C@H]1N1CCC(c2ccccc2)CC1 [(-)-FEOBV] | 10.7 |  |  |  |  |  | 19.6 ± 1.1 nM | 209 ± 94 nM
CS(=O)(=O)c1ccc(C(=O)C2CCN(C3Cc4ccccc4CC3O)CC2)cc1 (racemic) [(±)-7, (±)-(1-(3-Hydroxy-1,2,3,4-tetrahydronaphthalen-2-yl)piperidin-4-yl)(4-(methyl-sulfonyl)phenyl)methanone] | 3.1 | > 185 | 16.5 ± 2.1 nM | > 1000 nM |  |  |  | 
